System: rat femoral arteries (intimal hyperplasia)
Assay: Intimal hyperplasia in rat femoral arteries formed by photosensitization (rose bengal and green light)
Type: in vivo, Wistar rat
Details: left femoral artery, vs solvent group
Description: Under intraperitoneal anesthesia with pentobarbital (50 mg/mL/kg), a catheter was placed in the left cervical vein of a Wistar rat. The left femoral artery was detached, and the probe of an ultrasonic pulse Doppler blood flowmeter was placed on the artery. The artery proximal to the site of placement of the probe was irradiated with green light (540 nm, 800,000 1×) at a distance of 5 mm from the artery. A steady blood flow was confirmed after 10 minutes of start of the irradiation, and 15 mg/mL/kg of rose bengal was injected into the left cervical vein to damage the vascular endothelium. Then, the incision was sutured. Rats were divided in order as a solvent group (9 rats), a group (10 rats) to which 10 mg/kg of Compound A was administered, and a group (10 rats) to which 300 mg/kg of Cilostazol was administered. The drugs were suspended in 0.5% methylcellulose solution, adjusted so as to be administered at a dose of 5 mL/kg, and orally administered on the day of operation after confirmation of postoperative arousal, and then orally administered once a day in the morning for the subsequent three weeks. Three weeks after the operation, the left femoral artery was exposed under anesthesia. […] The medial areas and the intimal area in transverse sections of the femoral arteries were measured as indices of intimal hyperplasia with a computer image analyzer, and the ratio of the […] (the I/M ratio) was calculated. The results are expressed as average±standard deviation. The intimal areas and the I/M ratios were analyzed for distribution uniformity in each group by Bartlett's test. If the distribution was uniform, one-way analysis of variance was done, and the averages for the solvent group and the respective drug-treated groups were analyzed by Dunnett's test to determine if there was significant difference between them. When the distribution was not uniform, the Kruskal-Wallis rank test was done, and if there was significant difference between the solvent group and a drug-treated group, the average ranks for the two groups were analyzed by Dunnett's test. […]

[1] = 10 mg/kg orally once a day for three weeks, Dunnett's test p<0.05

For `O=C1CCc2cc(OCCCCc3nnnn3C3CCCCC3)ccc2N1` [Cilostazol, reference compound], the “intimal hyperplasia inhibitory action (intimal area and I/M ratio)” value (300 mg/kg orally once a day for three weeks) was “showed no action”.
With `Cl.O=c1[nH]nc(OCCCc2ccc(Cl)cc2)c(NCc2cccnc2)c1Br` [Compound A, 4-bromo-6-[3-(4-chlorophenyl)propoxy]-5-(3-pyridylmethylamino)-3(2H)-pyridazinone hydrochloride] the I/M ratio [1] was “significantly reduced” and the “area of the tunica intima (intimal area)” value [1] was “significantly reduced”.

From patent publication US20090155187A1, “DRUG FOR INHIBITING VASCULAR INTIMAL HYPERPLASIA” (Nissan Chemical Industries Ltd., priority 2004, published 2009)
